Measured values reported in ChEMBL document CHEMBL1201862, “PubChem BioAssay data set” (2004).
Calls of active or inactive are those of the source.

Assays:
[1] = non-specific cell cytotoxicity, dose response, cytotoxicity control for PAX8 inhibitor project, plate reader, dry powder samples (AID 743021); type: functional, cell-based
[2] = Luminescence Cell-Based Dose Retest to Confirm Inhibitors of Cancer Stem Cells. [Related pubchem assays (depositor defined):AID2717, AID2721]; type: functional; conditions: Homo sapiens
Paired box protein Pax-8 = Paired box protein Pax-8 (Homo sapiens, UniProt Q06710); experiment: inhibitors of PAX8-driven TPO luciferase reporter, dose response, RMG-I cells, cherry-pick (AID 687027); type: functional, cell-based;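 also: luciferase reporter driven by Pax8 target thyroperoxidase promoter measured by SteadyGlo luminescence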
Paired box protein Pax-8, sequence (Q06710 whole entry): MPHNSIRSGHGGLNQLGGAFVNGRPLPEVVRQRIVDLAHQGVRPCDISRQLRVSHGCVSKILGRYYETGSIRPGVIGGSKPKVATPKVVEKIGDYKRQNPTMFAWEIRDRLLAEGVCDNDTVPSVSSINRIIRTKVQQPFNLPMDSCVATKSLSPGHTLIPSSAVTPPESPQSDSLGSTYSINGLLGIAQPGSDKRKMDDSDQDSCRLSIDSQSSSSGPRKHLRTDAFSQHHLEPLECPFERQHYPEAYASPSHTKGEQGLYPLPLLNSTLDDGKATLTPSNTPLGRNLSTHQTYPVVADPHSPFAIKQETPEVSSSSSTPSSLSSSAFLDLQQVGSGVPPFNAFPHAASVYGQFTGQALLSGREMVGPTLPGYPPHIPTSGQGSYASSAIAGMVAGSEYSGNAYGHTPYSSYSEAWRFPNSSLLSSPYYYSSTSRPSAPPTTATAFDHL

INS1 = experiment: beta cell apoptosis inhibitors, cytokine rescue, dose response, luminescence, retest (AID 449756); type: functional, cell-based; conditions: Rattus norvegicus;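 also: cell death triggered by IL-1 beta plus TNF-alpha plus IFN-gamma mixture; protective hits raise ATP signal compared with cytokine alone wells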
[3] = nonselective inhibitors of cellular cAMP signaling, dose response, counter-screen for MC4R biased antagonist project, cell-based, TR-FRET cAMP detection (AID 602305); type: functional;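 also: U2OS cells stimulated with forskolin near its EC80 as the cAMP inducer; potency is for inhibition of forskolin-stimulated cAMP signaling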
Melanocortin receptor 4 = Melanocortin receptor 4 (Homo sapiens, UniProt P32245); experiment: MC4R antagonist potency on cAMP, dose response, cell-based, TR-FRET, biased antagonists (AID 602298); type: functional;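 also: antagonist potency against agonist-stimulated cAMP production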
Melanocortin receptor 4, sequence (P32245 whole entry): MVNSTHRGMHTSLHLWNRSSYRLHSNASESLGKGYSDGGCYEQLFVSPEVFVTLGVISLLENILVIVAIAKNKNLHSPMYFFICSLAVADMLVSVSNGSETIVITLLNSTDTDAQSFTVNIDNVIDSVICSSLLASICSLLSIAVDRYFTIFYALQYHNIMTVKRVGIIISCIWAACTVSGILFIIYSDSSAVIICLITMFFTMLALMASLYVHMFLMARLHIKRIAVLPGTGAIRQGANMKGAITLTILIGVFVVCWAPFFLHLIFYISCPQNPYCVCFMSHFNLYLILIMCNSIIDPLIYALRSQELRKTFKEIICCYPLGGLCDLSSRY

[4] = inhibitors of intracellular T. cruzi replication, confirmation, NIH3T3 host cells, beta-gal luminescence (AID 2044); type: functional, cell-based;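 also: intracellular parasites grown in NIH/3T3 mouse fibroblasts as host cells; luminescent beta-galactosidase reporter signal from transgenic T. cruzi replicating inside host cells; inhibitors lower the luminescence signal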
[5] = cytotoxicity toward NIH3T3 fibroblasts, dose response, counter-screen, cell-based, ATP luminescence, mouse fibroblasts (AID 2010); type: functional;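 also: cells exposed to compound for about 90 hours before reading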
[6] = target: T1, Serine/threonine-protein phosphatase (Candida dubliniensis (strain CD36 / CBS 7987 / NCPF 3949 / NRRLY-17841) (Yeast), UniProt B9W6M3); experiment: calcineurin pathway inhibitors in yeast reporter, dose response, S. cerevisiae, CDRE-lacZ, luminescence, secondary (AID 2388); type: functional, cell-based;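 also: yeast reporter cells carrying a calcineurin-responsive lacZ construct stimulated with calcium chloride; luminescent beta-galactosidase reporter signal in whole cells rather than isolated phosphatase activity; potency for inhibition where a drop in reporter signal means calcineurin blockade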
T1 sequence (B9W6M3 whole entry): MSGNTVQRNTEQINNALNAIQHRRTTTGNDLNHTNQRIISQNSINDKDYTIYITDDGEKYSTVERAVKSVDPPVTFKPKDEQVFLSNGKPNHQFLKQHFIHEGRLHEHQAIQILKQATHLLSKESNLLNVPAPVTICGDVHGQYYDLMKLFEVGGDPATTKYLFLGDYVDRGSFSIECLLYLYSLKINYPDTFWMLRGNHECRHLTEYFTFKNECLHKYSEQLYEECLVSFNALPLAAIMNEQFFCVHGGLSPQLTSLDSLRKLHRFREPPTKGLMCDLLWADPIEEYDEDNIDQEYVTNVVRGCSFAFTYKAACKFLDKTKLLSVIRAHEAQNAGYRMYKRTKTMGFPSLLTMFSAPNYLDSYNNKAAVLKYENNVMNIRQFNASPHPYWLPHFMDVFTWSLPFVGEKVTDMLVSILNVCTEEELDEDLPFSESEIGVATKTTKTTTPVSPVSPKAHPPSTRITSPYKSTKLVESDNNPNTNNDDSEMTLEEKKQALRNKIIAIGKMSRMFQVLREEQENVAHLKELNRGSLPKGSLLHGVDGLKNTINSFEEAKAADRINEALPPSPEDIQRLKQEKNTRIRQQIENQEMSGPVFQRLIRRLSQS

[7] = NIH-3T3 fibroblast cytotoxicity, dose response, cytotoxicity control, cell-based, fluorescence, Alamar Blue, secondary assay (AID 2327); type: functional;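 also: NIH-3T3 mouse fibroblasts cultured with fluconazole at 8 µg/mL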
Beta-galactosidase = Beta-galactosidase (Escherichia coli, UniProt Q8VNN2); experiment: beta-galactosidase enzyme inhibitors and activators, dose response, artefact control for CCR6 antagonist project, biochemical, E. coli enzyme, set 3 (AID 504712); type: functional
Beta-galactosidase, sequence (Q8VNN2 whole entry): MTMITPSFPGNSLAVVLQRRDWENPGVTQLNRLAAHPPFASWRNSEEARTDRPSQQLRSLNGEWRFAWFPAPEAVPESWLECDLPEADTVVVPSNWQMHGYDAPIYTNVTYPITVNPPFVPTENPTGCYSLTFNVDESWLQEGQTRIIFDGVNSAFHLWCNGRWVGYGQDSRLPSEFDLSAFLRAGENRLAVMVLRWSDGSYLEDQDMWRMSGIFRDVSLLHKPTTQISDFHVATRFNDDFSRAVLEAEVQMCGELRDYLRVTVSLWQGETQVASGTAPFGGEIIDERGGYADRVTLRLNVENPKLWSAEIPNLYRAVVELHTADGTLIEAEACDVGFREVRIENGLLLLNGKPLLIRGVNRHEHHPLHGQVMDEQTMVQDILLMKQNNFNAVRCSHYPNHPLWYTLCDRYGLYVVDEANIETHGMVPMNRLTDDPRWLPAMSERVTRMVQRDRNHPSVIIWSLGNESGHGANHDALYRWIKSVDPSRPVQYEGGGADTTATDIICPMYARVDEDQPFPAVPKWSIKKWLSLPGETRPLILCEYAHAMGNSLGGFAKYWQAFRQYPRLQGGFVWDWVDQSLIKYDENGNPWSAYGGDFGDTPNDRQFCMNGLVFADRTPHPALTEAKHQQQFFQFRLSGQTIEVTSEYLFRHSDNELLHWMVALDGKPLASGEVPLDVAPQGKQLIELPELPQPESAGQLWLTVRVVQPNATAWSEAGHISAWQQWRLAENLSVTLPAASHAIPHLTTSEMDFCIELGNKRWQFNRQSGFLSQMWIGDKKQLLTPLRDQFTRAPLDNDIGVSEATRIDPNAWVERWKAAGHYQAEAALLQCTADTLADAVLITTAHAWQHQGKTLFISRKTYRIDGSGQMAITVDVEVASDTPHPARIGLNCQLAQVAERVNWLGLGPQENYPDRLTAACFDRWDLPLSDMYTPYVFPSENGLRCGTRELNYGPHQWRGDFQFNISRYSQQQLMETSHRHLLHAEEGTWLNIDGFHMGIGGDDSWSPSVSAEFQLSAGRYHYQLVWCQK

[8] = C. albicans growth with fluconazole, confirmation, fluorescence, retest (AID 2467); type: functional, cell-based
[9] = target: ATP-dependent molecular chaperone HSP82 (Candida albicans (strain WO-1) (Yeast), UniProt C4YTQ8); experiment: loss of DOC-induced GRE-beta-galactosidase reporter signal, dose response, Hsp90 inhibitor project, S. cerevisiae, luminescence (AID 2400); type: functional, cell-based;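 also: beta-galactosidase luminescence from glucocorticoid response element reporter as proxy for Hsp90 function; inhibitor potency where signal loss means Hsp90 inhibition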
ATP-dependent molecular chaperone HSP82, sequence (C4YTQ8 whole entry): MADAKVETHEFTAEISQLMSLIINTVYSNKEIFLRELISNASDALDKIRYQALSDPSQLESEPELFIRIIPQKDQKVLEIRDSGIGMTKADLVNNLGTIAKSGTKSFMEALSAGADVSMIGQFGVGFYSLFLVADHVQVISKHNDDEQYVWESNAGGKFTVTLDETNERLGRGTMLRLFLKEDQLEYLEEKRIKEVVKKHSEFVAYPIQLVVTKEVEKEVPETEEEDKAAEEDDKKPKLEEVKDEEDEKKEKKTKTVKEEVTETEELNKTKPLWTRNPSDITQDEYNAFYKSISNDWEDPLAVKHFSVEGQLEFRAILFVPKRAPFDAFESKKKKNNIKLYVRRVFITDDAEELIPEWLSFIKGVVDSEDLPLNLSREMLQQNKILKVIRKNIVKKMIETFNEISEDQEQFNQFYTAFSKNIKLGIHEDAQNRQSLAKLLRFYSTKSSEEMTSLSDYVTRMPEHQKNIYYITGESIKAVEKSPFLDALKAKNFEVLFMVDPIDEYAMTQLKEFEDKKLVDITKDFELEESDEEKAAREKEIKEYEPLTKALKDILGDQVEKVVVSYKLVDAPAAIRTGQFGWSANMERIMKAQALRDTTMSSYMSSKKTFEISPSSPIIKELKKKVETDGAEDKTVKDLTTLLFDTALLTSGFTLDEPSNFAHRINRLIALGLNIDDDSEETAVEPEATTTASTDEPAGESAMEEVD

[10] = target: T2, Low molecular weight phosphotyrosine protein phosphatase (Homo sapiens, UniProt P24666); type: functional; conditions: read-out: IC50_Mean
T2 sequence (P24666 whole entry): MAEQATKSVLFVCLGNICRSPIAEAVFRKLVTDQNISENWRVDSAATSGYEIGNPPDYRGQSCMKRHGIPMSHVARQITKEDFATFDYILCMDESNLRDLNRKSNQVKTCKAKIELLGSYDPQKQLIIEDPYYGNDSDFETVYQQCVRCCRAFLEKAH

[11] = target: T2, Low molecular weight phosphotyrosine protein phosphatase; type: functional; conditions: read-out: IC50_Mean; remark: listed apart in the source
[12] = target: T3, Latent membrane protein 1 (Human herpesvirus 4 (strain B95-8), UniProt P03230); experiment: TES1-eGFP NF-kB reporter inhibition versus Tet-On dsRED, dose response, selectivity assay for LMP1 NF-kB inhibitor project, imaging, HEK293T, dual-color eGFP/dsRED, cherry-picks (AID 588398); type: functional, cell-based
T3 sequence (P03230 whole entry): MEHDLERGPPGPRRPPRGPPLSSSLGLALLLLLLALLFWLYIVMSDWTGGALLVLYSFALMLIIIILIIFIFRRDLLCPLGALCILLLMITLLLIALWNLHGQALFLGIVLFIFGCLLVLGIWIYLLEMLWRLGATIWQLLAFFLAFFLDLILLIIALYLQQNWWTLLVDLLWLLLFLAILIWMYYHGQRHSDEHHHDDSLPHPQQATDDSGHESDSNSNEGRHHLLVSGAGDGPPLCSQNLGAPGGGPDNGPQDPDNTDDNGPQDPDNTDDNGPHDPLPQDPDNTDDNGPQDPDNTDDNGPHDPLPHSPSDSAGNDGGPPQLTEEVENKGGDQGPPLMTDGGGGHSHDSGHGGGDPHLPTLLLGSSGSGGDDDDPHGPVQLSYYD

HEK293 = experiment: inhibitors of LMP1-driven NF-kB reporter, dose response, cell-based, HEK293, luciferase, cherry-pick (AID 588343); type: functional; conditions: Homo sapiens

Compound: C=C1CCc2c([nH]c3ccc(OCC(C)C)cc23)C1=O
- AC50 [1]: 35.6 µM (active)
- AC50 [2]: 2.08 µM (active)
- AC50 (Paired box protein Pax-8): 6.14 µM (active)
- AC50 (INS1): 3.69 µM (active)
- IC50 [3]: > 64.6 µM (inactive)
- IC50 (Melanocortin receptor 4): 6.05 µM (active)

Compound: O=C1c2cccc([N+](=O)[O-])c2C(=O)N1c1ccccc1
- IC50 [3]: > 64.6 µM (inactive)
- IC50 (Melanocortin receptor 4): > 64.6 µM (inactive)

Compound: CCOc1ccc2nc(NC(=O)C3CCCN(S(=O)(=O)c4cccc5nonc45)C3)sc2c1 (stereo not drawn)
- EC50 [4]: 2.11 µM (active)
- IC50 [3]: > 64.6 µM (inactive)
- EC50 [5]: > 60 µM (not active)
- IC50 (Melanocortin receptor 4): > 64.6 µM (inactive)

Compound: CC(=O)NC(c1ccc(C)cc1)c1cc([N+](=O)[O-])c2cccnc2c1O (stereo not drawn)
- EC50 [6]: > 180 µM (inactive)
- EC50 [4]: 1.16 µM (active)
- EC50 [7]: 47.2 µM (active)
- IC50 (Beta-galactosidase): > 66.6 µM (inactive)
- EC50 [5]: < 6 µM (inconclusive)
- EC50 [8]: 0.334 µM (active)
- EC50 [9]: 40.3 µM (active)

Compound: COCCNc1nc(NCc2cc(-c3ccc(OC)cc3)no2)c2sccc2n1
- IC50 [10]: 23.3 µM (inactive)
- IC50 [11]: 9.53 µM (active)

Compound: CCOC(=O)CC(NC(=O)C(Cc1ccc(N(CCCl)CCCl)cc1)NC(C)=O)C(=O)OCC (stereo not drawn)
- AC50 [12]: 16.2 µM (active)
- AC50 (HEK293): 1.65 µM (active)
